Broadly, the IC50 is the concentration that inhibits the measured activity by half. Low readings indicate inhibition by little substance, high ones a need for much substance. One may read the AUC(0-t) as exposure summed from dosing to a finite time, without extrapolation to infinity. Low readings indicate low exposure, high ones high exposure. By half-life is commonly meant how long it takes for the measured level to halve. Lower therefore signals rapid decline. The term bioavailability denotes dose-corrected exposure relative to a reference, in per cent.

A short description of data set [1]: Antitumor activity against human U87MG cells xenografted in nu/nu CD1 mouse model assessed as maximum tumor regression at 50 mg/kg, po bid for 14 days. It is filed as functional, U-87MG ATCC. Background: In xenograft studies the graft and the host belong to different species.
Data set [2] deals with Hepatocyte growth factor receptor (Homo sapiens, UniProt P08581, Y1230C). Description: Inhibition of cMET Y1230C mutant (unknown origin) autophosphorylation.
The subject of data set [3] is Mus musculus. Description: Toxicity in human SNU5 cells xenografted nu/nu CD1 mouse model assessed as body weigh loss at 200 mg/kg, po qd for 20 days. Particulars: in vivo, 480 h.
Data set [4] in a line: AUC (0 to last) in Sprague-Dawley rat at 20 mg/kg, po. Further details: time 0 - last, dose 20 mg/kg, route oral. Particulars: plasma. The data set is classed as ADME, organism-based.
Data set [5] is described as follows: Half life in Sprague-Dawley rat at 2 mg/kg, iv. Further details: dose 2 mg/kg, route intravenous. It is filed as ADME, organism-based. Particulars: in vivo.
Data set [6] is described as follows: Antitumor activity against human U87MG cells xenografted in nu/nu CD1 mouse model assessed as maximum tumor regression at 50 mg/kg, po qd for 14 days. The data set is classed as functional, U-87MG ATCC.
Data set [7] is described as follows: Antitumor activity against human U87MG cells xenografted in nu/nu CD1 mouse model assessed as maximum tumor regression at 200 mg/kg, po qd for 14 days. The data set is classed as functional, U-87MG ATCC.
A short description of data set [8]: Volume of distribution at steady state in CD1 mouse at 2 mg/kg, iv. It is filed as ADME, organism-based. The arrangement: dose 2 mg/kg, route intravenous. Conditions: in vivo, read-out: Vdss.
Data set [9] is described as follows: Metabolic stability in human liver microsomes assessed as extraction ratio up to 40 mins by LC-MS/MS analysis. It is filed as ADME, Microsome. Conditions: read-out: ERH.
Data set [10] can be described thus: Volume of distribution at steady state in Sprague-Dawley rat at 2 mg/kg, iv. The data set is classed as ADME, organism-based. Further details: dose 2 mg/kg, route intravenous. Particulars: in vivo, read-out: Vdss.
The subject of data set [11] is Mus musculus. Description: Toxicity in human U87MG cells xenografted nu/nu CD1 mouse model assessed as body weigh loss at 50 mg/kg, po bid for 14 days. It is filed as organism-based, U-87MG ATCC. The arrangement: dose 50 mg/kg, route oral. Conditions: in vivo, 336 h.
Data set [12] in a line: Oral bioavailability in Sprague-Dawley rat at 20 mg/kg. It is filed as ADME, organism-based. Particulars: in vivo.
The nature of data set [13]: Antitumor activity against human U87MG cells xenografted in nu/nu CD1 mouse model assessed as maximum tumor regression at 100 mg/kg, po qd for 14 days. It is filed as functional, U-87MG ATCC.
Data set [14] in a line: Protein binding in human plasma by equilibrium dialysis. The data set is classed as ADME, cell-free. Conditions: read-out: PPB (converted). (In general: In equilibrium dialysis free small molecules cross a membrane that holds back macromolecules.)
In another data set the test system is MKN-45. Description: Antiproliferative activity against human MKN45 cells after 3 days by CellTiter-Glo assay. Conditions: MKN-45, 72 h. The data set is classed as functional, cell-based. (Cellular ATP, detected with luciferase, serves as a proxy for viable cell number.)
The test system of another data set is Salmonella typhimurium. Description: Mutagenic activity in Salmonella typhimurium TA98 by Ames test in absence of liver S9 fraction. It is filed as toxicity, organism-based. Particulars: salmonella enterica subsp. enterica serovar typhimurium.
For data set [15], the system named is SNU-5. Description: Antitumor activity against human SNU5 cells xenografted in nu/nu CD1 mouse model assessed as maximum tumor regression at 200 mg/kg, po qd for 20 days.
The test system of data set [16] is SNU-5. The data set is described as follows: Antitumor activity against human SNU5 cells xenografted in nu/nu CD1 mouse model assessed as tumor growth inhibition at 100 mg/kg, po qd for 20 days. Conditions: SNU-5, po, 480 h, read-out: TGI.
For data set [17], the system named is SNU-5. The data set is described as follows: Antitumor activity against human SNU5 cells xenografted in nu/nu CD1 mouse model assessed as maximum tumor regression at 50 mg/kg, po qd for 20 days.
The test system of data set [18] is SNU-5. The data set is described as follows: Antitumor activity against human SNU5 cells xenografted in nu/nu CD1 mouse model assessed as tumor growth inhibition at 200 mg/kg, po qd for 20 days. Particulars: SNU-5, po, 480 h, read-out: TGI.
Data set [19] can be described thus: Antitumor activity against human U87MG cells xenografted in nu/nu CD1 mouse model assessed as maximum tumor regression at 100 mg/kg, po bid for 14 days. It is filed as functional, U-87MG ATCC.

SMILES strings stand for the structures.

Chain of Hepatocyte growth factor receptor (P08581 25-1390 Y1230C limits assumed): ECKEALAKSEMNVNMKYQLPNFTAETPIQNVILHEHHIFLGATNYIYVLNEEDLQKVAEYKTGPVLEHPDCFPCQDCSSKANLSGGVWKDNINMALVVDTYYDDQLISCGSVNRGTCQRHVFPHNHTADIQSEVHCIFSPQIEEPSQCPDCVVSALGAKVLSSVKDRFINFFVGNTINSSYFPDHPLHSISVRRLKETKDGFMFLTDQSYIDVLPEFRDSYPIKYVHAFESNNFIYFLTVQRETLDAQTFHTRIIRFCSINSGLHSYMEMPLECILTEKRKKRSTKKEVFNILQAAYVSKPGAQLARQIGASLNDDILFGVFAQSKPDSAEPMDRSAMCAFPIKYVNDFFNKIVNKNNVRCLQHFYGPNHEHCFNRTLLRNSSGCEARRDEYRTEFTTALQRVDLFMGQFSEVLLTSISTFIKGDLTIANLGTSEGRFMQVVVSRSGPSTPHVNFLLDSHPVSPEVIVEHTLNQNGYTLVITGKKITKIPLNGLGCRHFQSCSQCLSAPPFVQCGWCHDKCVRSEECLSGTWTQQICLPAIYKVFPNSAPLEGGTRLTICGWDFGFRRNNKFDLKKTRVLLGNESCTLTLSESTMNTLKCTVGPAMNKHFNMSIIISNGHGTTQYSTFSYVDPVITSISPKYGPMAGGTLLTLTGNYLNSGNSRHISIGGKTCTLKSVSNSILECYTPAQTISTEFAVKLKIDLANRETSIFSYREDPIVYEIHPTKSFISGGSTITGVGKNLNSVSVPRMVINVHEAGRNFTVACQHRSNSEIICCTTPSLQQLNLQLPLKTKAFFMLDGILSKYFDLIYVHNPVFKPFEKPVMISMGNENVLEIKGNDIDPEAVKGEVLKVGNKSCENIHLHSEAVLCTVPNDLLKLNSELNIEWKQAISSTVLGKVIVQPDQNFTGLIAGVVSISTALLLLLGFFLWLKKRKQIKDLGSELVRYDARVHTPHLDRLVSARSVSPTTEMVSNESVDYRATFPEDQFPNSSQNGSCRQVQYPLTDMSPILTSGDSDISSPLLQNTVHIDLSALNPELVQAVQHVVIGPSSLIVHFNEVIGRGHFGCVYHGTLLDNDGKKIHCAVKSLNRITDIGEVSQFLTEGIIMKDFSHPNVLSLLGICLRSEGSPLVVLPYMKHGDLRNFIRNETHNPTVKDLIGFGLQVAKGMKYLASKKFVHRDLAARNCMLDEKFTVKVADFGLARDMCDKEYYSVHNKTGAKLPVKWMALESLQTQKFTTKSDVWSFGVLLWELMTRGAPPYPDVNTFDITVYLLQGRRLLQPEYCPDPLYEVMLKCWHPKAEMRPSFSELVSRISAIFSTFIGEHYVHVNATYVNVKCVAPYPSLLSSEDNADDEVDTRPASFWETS

Take `C[C@@H](Oc1c(N)ncc2c(C3=CCN(C(N)=O)CC3)coc12)c1c(Cl)ccc(F)c1Cl`: the Activity in data set [1] is reported as 0%; in the data set with Mus musculus [3] it was 4%; in [6], 0%; in [7], 8%; in the data set with Mus musculus [11], 5%; in [13], 0%. Also, the Activity result with Salmonella typhimurium is given as “Non-toxic”; in the data set on SNU-5 [15], 80%; in the data set on SNU-5 [17] it was 31%; in data set [19] it was 22%. Moreover, the IC50 in [2] came to 0.072 µM; in the data set on MKN-45, 0.13 µM. In [4], the AUC(0-t) was determined as 6.2 µg·h/mL. This compound showed a half-life in data set [5] of 2 h. Moreover, the Vd came to 3.8 L/kg in data set [8] and 6.8 L/kg in data set [10]. Also, in data set [9], the hepatic extraction ratio at 40 min worked out at 0.7. For the same compound, in data set [12], the bioavailability worked out at 72%. Also, the fraction unbound in data set [14] is 0.019. Moreover, the inhibition in vivo at 100 mg/kg with SNU-5 [16] was found to be 100%. The inhibition in vivo at 200 mg/kg with SNU-5 [18] was found to be 100%.

The values above are taken from ChEMBL document CHEMBL2401646 (Bioorg Med Chem Lett, 2013).
